Results on six compounds are retold here after patent US10301305B2 (priority 2014, dated 2019).

A word on the IC50: it is the concentration that inhibits the measured activity by half.

Counter-ions that a name gives are not always drawn. Like-named read-outs stand apart in the source and are kept apart here.

Holding throughout (format): biochemical
One experiment deals with S. aureus DltA (Staphylococcus aureus (strain NCTC 8325 / PS 47), UniProt Q2FZW6). Kind of experiment: in vitro DltA activity assay (luminescence), S. aureus DltA. The conditions noted are these: recombinant DltA, 30 min pre-incubation, 0.5 mM D-Alanine, 0.5-5 μM ATP; read-out: S. aureus DltA IC50. The method in brief: (§1)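 His-tagged recombinant DltA (expressed in E. coli BL21, Ni-NTA purified) pre-incubated 30 min with inhibitor in 50 mM Hepes pH 8.0, MgCl2, KCl, Triton X-100, DTT. Reaction with 0.5 mM D-alanine, 0.5–5 µM ATP and pyrophosphatase for 1–2 h at RT, then residual ATP read by luciferase luminescence. IC50 from 6–10 concentrations, quench-corrected.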

A further experiment concerns the target E. feacalis DltA (Enterococcus faecalis, UniProt Q830N0). Kind of experiment: in vitro DltA activity assay (luminescence), E. faecalis DltA. The conditions noted are these: recombinant DltA, 30 min pre-incubation, 0.5 mM D-Alanine, 0.5-5 μM ATP; read-out: E. feacalis DltA IC50. The method in brief: as §1
The target in a further experiment is E. feacium DltA (Enterococcus faecium, UniProt Q3XZT7). The experiment in a line: in vitro DltA activity assay (luminescence), E. faecium DltA. The conditions noted are these: recombinant DltA, 30 min pre-incubation, 0.5 mM D-Alanine, 0.5-5 μM ATP; read-out: E. feacium DltA IC50. The method, boiled down: as §1
The target of a further experiment is S. Agalactiae DltA (Streptococcus agalactiae serotype III (strain NEM316), UniProt Q8VM67). Kind of experiment: in vitro DltA activity assay (luminescence), S. agalactiae DltA. The method, boiled down: as §1
Setting [1] is: recombinant DltA, 30 min pre-incubation, 0.5 mM D-Alanine, 0.5-5 μM ATP, read-out: S. Agalactiae DltA IC50.

E. feacalis DltA, sequence (Q830N0 1-506): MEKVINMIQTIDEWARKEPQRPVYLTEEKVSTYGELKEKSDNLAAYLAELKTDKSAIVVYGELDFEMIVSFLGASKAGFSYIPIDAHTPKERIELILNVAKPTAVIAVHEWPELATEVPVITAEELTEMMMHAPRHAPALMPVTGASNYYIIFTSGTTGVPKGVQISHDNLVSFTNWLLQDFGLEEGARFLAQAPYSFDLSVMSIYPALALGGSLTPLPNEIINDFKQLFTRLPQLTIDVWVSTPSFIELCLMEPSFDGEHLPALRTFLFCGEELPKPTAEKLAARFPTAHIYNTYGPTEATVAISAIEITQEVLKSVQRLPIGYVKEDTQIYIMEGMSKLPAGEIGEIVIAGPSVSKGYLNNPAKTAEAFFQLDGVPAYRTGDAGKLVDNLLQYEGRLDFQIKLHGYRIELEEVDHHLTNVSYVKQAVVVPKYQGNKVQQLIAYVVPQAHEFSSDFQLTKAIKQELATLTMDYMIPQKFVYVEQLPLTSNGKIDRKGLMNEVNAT
E. feacium DltA, sequence (Q3XZT7 1-504): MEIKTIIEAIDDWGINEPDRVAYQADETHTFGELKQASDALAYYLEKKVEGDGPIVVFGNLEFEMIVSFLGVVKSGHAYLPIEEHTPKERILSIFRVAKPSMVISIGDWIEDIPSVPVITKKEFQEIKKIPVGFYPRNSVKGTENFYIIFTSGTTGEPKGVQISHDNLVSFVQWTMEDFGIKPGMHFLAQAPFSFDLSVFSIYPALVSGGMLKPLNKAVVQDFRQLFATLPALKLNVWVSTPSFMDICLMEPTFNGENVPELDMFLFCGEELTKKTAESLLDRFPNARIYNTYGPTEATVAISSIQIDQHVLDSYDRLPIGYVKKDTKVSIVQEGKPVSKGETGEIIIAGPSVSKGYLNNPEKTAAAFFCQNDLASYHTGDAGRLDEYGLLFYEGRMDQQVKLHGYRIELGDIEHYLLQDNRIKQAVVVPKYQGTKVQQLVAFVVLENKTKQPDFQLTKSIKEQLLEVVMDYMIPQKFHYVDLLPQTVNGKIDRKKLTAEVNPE

On to `O=C(O)c1c(N2CC[C@H](CO)C2)cc(-c2ccc3c(c2)ncn3C2CCCCC2)c2nc[nH]c12` [Example 55, 1′-Cyclohexyl-6-((S)-3-hydroxymethyl-pyrrolidin-1-yl)-1H,1′H-[4,5′]bibenzimidazolyl-7-carboxylic acid], for which the IC50 worked out at 250 nM at S. aureus DltA, 150 nM on E. feacalis DltA, 360 nM at E. feacium DltA and 760 nM at S. Agalactiae DltA (setting [1]).
Consider `OCCC1CCN(c2cc(-c3ccc4c(c3)ncn4C3CCCCC3)c3nc[nH]c3n2)C1` (stereo not drawn) [Example 10, 2-{1-[7-(1-Cyclohexyl-1H-benzimidazol-5-yl)-3H-imidazo[4,5-b]pyridin-5-yl]-pyrrolidin-3-yl}-ethanol], for which the IC50 at S. aureus DltA stood at 160 nM; on E. feacalis DltA, 72 nM; on E. feacium DltA it was 120 nM; on S. Agalactiae DltA (setting [1]), 3800 nM.
Regarding `CN1CCC[C@@H]1COc1cc(-c2ccc3c(c2)ncn3C2CCCOC2)c2nc[nH]c2c1C(N)=O` (stereo partly drawn) [Example 215, 5-[[(2R)-1-methylpyrrolidin-2-yl]methoxy]-7-(1-tetrahydropyran-3-ylbenzimidazol-5-yl)-3H-benzimidazole-4-carboxamide methanesulfonic acid salt], the IC50 came out at 0.8 nM at S. aureus DltA, 1.4 nM at E. feacalis DltA, 5.7 nM at E. feacium DltA and 86 nM against S. Agalactiae DltA.
In the case of `CCn1cnc2cc(-c3nc(N(C)CCN(C)C)c(C(N)=O)c4[nH]cnc34)ccc21` [Example 200, 6-[2-(dimethylamino)ethyl-methyl-amino]-4-(1-ethylbenzimidazol-5-yl)-1H-imidazo[4,5-c]pyridine-7-carboxamide], the IC50 came out at 22 nM at S. aureus DltA, 71 nM on E. feacalis DltA, 800 nM at E. feacium DltA and 5400 nM at S. Agalactiae DltA (setting [1]).
On the same counts, the results for `CN(C)CCN(C)c1cc(-c2cnc3c(c2)CCCO3)c2nc[nH]c2c1C(N)=O` [Example 144, 7-(3,4-Dihydro-2H-pyrano[2,3-b]pyridin-6-yl)-5-[(2-dimethylamino-ethyl)-methyl-amino]-3H-benzimidazole-4-carboxamide] are 39 nM, 17 nM, 120 nM and 630 nM.
On the same counts, the results for `NC(=O)c1c(F)cc(-c2ccc3c(c2)ncn3C2CCCCC2)c2nc[nH]c12` [Example 63, 1′-Cyclohexyl-6-fluoro-1H,1′H-[4,5′]bibenzimidazolyl-7-carboxamide] are 49 nM, 43 nM, 83 nM and 2000 nM.
